Results reported in patent publication US4254155A, “Preparing neohesperidin dihydrochalcone sweetener composition” (Chimicasa GmbH, priority 1979, dated 1981).

Assay: discoloration / colour of aqueous NHDC solution
Assay type: physicochemical
Settings: over a period of time
From the text: The preferred acidulants are weak organic C1 -C6 organic mono- or di-carboxylic acids.
The acidulant-like malic or citric acid is incorporated to lower the pH to less than 6.5, in order to remove the yellow color formed in aqueous solutions of NHDC-based compositions.

discoloration of aqueous NHDC solution: yellow discoloration
Compound: COc1ccc(CCC(=O)c2c(O)cc(O[C@@H]3O[C@H](CO)[C@@H](O)[C@H](O)[C@H]3O[C@@H]3O[C@@H](C)[C@H](O)[C@@H](O)[C@H]3O)cc2O)cc1O [NHDC, Neohesperidin dihydrochalcone]
